Assay results taken from publication PMC2033546, “Effects of somatostatin analogue RC-160 and bombesin/gastrin-releasing peptide antagonists on the growth of human small-cell and non-small-cell lung carcinomas in nude mice” (British Journal of Cancer, 1994).
Where no end group is shown, it is not given here. [ ]: non-standard residue; d: D form.

Tests used:
[1] = tested on: EGF receptors in membranes of SCLC H69 tumours; assay: EGF receptor binding on H69 tumour membranes after in vivo treatment; set-up: species or system human
Description: (§1) Br. J. Cancer (1994). 70, 886 892 ? Macmillan Press Ltd.. […] Bombesin GRP antagonists. […] Lung carcinoma is the leading cause of cancer-related deaths in the western world. It is estimated that in 1992 there were approximately 168,000 new cases of lung cancer in the US and that about 146,000 deaths occurred from this disease (Boring et al., 1992). […] The growth factors such as bombesin/gastrin-releasing pep- tide (GRP), epidermal growth factor, (EGF), transforming growth factor a (TGF-x) and insulin-like growth factor I(IGF-I) appear to play a role in the proliferation and pro- gression of lung cancer (Cuttitta et al., 1985; Veale et al., 1987; Minuto et al., 1988; Siegfried & Owens, 1988; Macaulay et al., 1990; Tateishi et al., 1991; Damstrup et al., 1992; Sethi & Rozengurt, 1992; Rabiasz et al., 1992; Moody & Cuttitta, 1993). […] Tpi is 2,3,4,9-tetrahydro- Correspondence: A.V. Schally (151). VA Medical Center, 1601 Per- dido Street. New Orleans, LA 70146. USA. Received 1 March 1994; and in revised form 5 July 1994. Br. J. Cancer (1994), 70, 886-892 C Macmillan Press Ltd., 1994 PEPTIDE ANALOGUES IN LUNG CANCER 8U7 lH-pyrido [3,4bjindol-3-carboxylic acid, a conformationally constrained secondary amine derivate of tryptophan and Tac is thiazolidine-4-carboxylic acid. […] Animals Male athymic NCr nulmu nude mice, approximately 6 weeks old on arrival, were obtained from the NCI (Bethesda, MD, USA) and maintained under pathogen-limited conditions. Cell lines The human SCLC cell line NCI-H69, was obtained from the American Type Cell Culture (ATCC), Rockville, MD, USA and the non-SCLC cell line NCI-H157, from Dr H. Oie, NCI-Navy Medical Oncology Branch, Bethesda, MD, USA. These cell lines were cultured in RPMI-1640 medium supple- mented with 4 mM L-glutamine, 50 units ml-I penicilln G sodium, SOigml-' streptomycin sulphate, 0.125pgml-' amphotericin B and 10% fetal bovine serum at 3TC in a humidified 95% air/5% carbon dioxide atmosphere. CeLs were passaged weekly and routinely monitored for myco- plasma contamination using a detection kit (Boehringer- Mannheim, Mannheim, Germany). All culture media com- ponents were purchased from Gibco (Grand Island, NY, USA). Receptor assays Preparation of membranes for receptor studies was described previously (Halmos et al., 1993). Iodinated EGF and IGF-I were purchased from Amersham (Arlington Heights, IL, USA). Radioiodination of other peptides and receptor bind- ing of EGF, IGF-I, somatostatin and bombesin/GRP were performed as previously described (Srkalovic et al., 1989; Szepeshazi et al., 1992). Complete displacement assays on tumour membranes were done only once because of the shortage of tumour material. The LIGAND PC computerised curve-fitting programme of Munson and Rodbard (1980) was used to determine the types of receptor binding, dissociation constant (Kd) values, and the maximal binding capacity (BDj) of receptors. […] The number of mitotic and apoptotic cells per 1,000 cells was determined, and the percentage area of necrosis in tumour sections was examined using the point-counting method (Szepeshazi et al., 1991, 1992), in which the crossing points of an ocular net that coincide with necrosis in various sections are counted. Radiommunoassays Serum levels of growth hormone were determined by double- antibody radioimmunoassay (RIA) using materials supplied by the National Hormone and Pituitary Program of the National Institute of Diabetes and Digestive and Kidney Diseases (NIDDK).

[2] = tested on: IGF-I receptors in membranes of non-SCLC H157 tumours; assay: IGF-I receptor binding on H157 tumour membranes after in vivo treatment; set-up: species or system human
Description: as §1, with “USA).” for “USA). Receptor assays Preparation of membranes for receptor studies was described previously (Halmos et al., 1993). Iodinated EGF and IGF-I were purchased from Amersham (Arlington Heights, IL, USA). Radioiodination of other peptides and receptor bind- ing of EGF, IGF-I, somatostatin and bombesin/GRP were performed as previously described (Srkalovic et al., 1989; Szepeshazi et al., 1992). Complete displacement assays on tumour membranes were done only once because of the shortage of tumour material. The LIGAND PC computerised curve-fitting programme of Munson and Rodbard (1980) was used to determine the types of receptor binding, dissociation constant (Kd) values, and the maximal binding capacity (BDj) of receptors.”

[3] = tested on: IGF-I receptors in membranes of SCLC H69 tumours; assay: IGF-I receptor binding on H69 tumour membranes after in vivo treatment; set-up: species or system human; conditions: Table IV, Experiment I (SCLC-H69), control 294, done once
Description: as §1, with “USA).” for “USA). Receptor assays Preparation of membranes for receptor studies was described previously (Halmos et al., 1993). Iodinated EGF and IGF-I were purchased from Amersham (Arlington Heights, IL, USA). Radioiodination of other peptides and receptor bind- ing of EGF, IGF-I, somatostatin and bombesin/GRP were performed as previously described (Srkalovic et al., 1989; Szepeshazi et al., 1992). Complete displacement assays on tumour membranes were done only once because of the shortage of tumour material. The LIGAND PC computerised curve-fitting programme of Munson and Rodbard (1980) was used to determine the types of receptor binding, dissociation constant (Kd) values, and the maximal binding capacity (BDj) of receptors.”

[4] = Serum growth hormone (GH) radioimmunoassay in nude mice; format: in vivo
Description: Br. J. Cancer (1994). 70, 886 892 ? Macmillan Press Ltd.. […] Bombesin GRP antagonists. […] Lung carcinoma is the leading cause of cancer-related deaths in the western world. It is estimated that in 1992 there were approximately 168,000 new cases of lung cancer in the US and that about 146,000 deaths occurred from this disease (Boring et al., 1992). […] CeLs were passaged weekly and routinely monitored for myco- plasma contamination using a detection kit (Boehringer- Mannheim, Mannheim, Germany). […] The number of mitotic and apoptotic cells per 1,000 cells was determined, and the percentage area of necrosis in tumour sections was examined using the point-counting method (Szepeshazi et al., 1991, 1992), in which the crossing points of an ocular net that coincide with necrosis in various sections are counted. Radiommunoassays Serum levels of growth hormone were determined by double- antibody radioimmunoassay (RIA) using materials supplied by the National Hormone and Pituitary Program of the National Institute of Diabetes and Digestive and Kidney Diseases (NIDDK).

[5] = Serum gastrin radioimmunoassay in nude mice; format: in vivo; conditions: both experiments, after chronic treatment, vs controls
SCLC H69 tumours = assay: Histology (mitosis, apoptosis, necrosis) of SCLC H69 tumours; format: in vivo, human (xenograft in nude mice); conditions: Table II, Experiment I (SCLC H69); control 0.96 ? 0.1; means ? s.e.; *P < 0.05 vs control
Description: (§2) Br. J. Cancer (1994). 70, 886 892 ? Macmillan Press Ltd.. […] Bombesin GRP antagonists. […] Lung carcinoma is the leading cause of cancer-related deaths in the western world. It is estimated that in 1992 there were approximately 168,000 new cases of lung cancer in the US and that about 146,000 deaths occurred from this disease (Boring et al., 1992). […] The growth factors such as bombesin/gastrin-releasing pep- tide (GRP), epidermal growth factor, (EGF), transforming growth factor a (TGF-x) and insulin-like growth factor I(IGF-I) appear to play a role in the proliferation and pro- gression of lung cancer (Cuttitta et al., 1985; Veale et al., 1987; Minuto et al., 1988; Siegfried & Owens, 1988; Macaulay et al., 1990; Tateishi et al., 1991; Damstrup et al., 1992; Sethi & Rozengurt, 1992; Rabiasz et al., 1992; Moody & Cuttitta, 1993). […] Tpi is 2,3,4,9-tetrahydro- Correspondence: A.V. Schally (151). VA Medical Center, 1601 Per- dido Street. New Orleans, LA 70146. USA. Received 1 March 1994; and in revised form 5 July 1994. Br. J. Cancer (1994), 70, 886-892 C Macmillan Press Ltd., 1994 PEPTIDE ANALOGUES IN LUNG CANCER 8U7 lH-pyrido [3,4bjindol-3-carboxylic acid, a conformationally constrained secondary amine derivate of tryptophan and Tac is thiazolidine-4-carboxylic acid. […] Animals Male athymic NCr nulmu nude mice, approximately 6 weeks old on arrival, were obtained from the NCI (Bethesda, MD, USA) and maintained under pathogen-limited conditions. Cell lines The human SCLC cell line NCI-H69, was obtained from the American Type Cell Culture (ATCC), Rockville, MD, USA and the non-SCLC cell line NCI-H157, from Dr H. Oie, NCI-Navy Medical Oncology Branch, Bethesda, MD, USA. These cell lines were cultured in RPMI-1640 medium supple- mented with 4 mM L-glutamine, 50 units ml-I penicilln G sodium, SOigml-' streptomycin sulphate, 0.125pgml-' amphotericin B and 10% fetal bovine serum at 3TC in a humidified 95% air/5% carbon dioxide atmosphere. CeLs were passaged weekly and routinely monitored for myco- plasma contamination using a detection kit (Boehringer- Mannheim, Mannheim, Germany). All culture media com- ponents were purchased from Gibco (Grand Island, NY, USA). Receptor assays Preparation of membranes for receptor studies was described previously (Halmos et al., 1993). Iodinated EGF and IGF-I were purchased from Amersham (Arlington Heights, IL, USA). Radioiodination of other peptides and receptor bind- ing of EGF, IGF-I, somatostatin and bombesin/GRP were performed as previously described (Srkalovic et al., 1989; Szepeshazi et al., 1992). Complete displacement assays on tumour membranes were done only once because of the shortage of tumour material. The LIGAND PC computerised curve-fitting programme of Munson and Rodbard (1980) was used to determine the types of receptor binding, dissociation constant (Kd) values, and the maximal binding capacity (BDj) of receptors. In order to determine the specificity of the binding sites for radiolabelled EGF, IGF-I, somatostatin and bombesin to lung cancer membranes, various structuraly related and unrelated peptides were tested for their ability to inhibit the binding of the tracers. Histological procedure The histological procedures were the same as described previously (Szepeshazi et al., 1991, 1992). The number of mitotic and apoptotic cells per 1,000 cells was determined, and the percentage area of necrosis in tumour sections was examined using the point-counting method (Szepeshazi et al., 1991, 1992), in which the crossing points of an ocular net that coincide with necrosis in various sections are counted. Radiommunoassays Serum levels of growth hormone were determined by double- antibody radioimmunoassay (RIA) using materials supplied by the National Hormone and Pituitary Program of the National Institute of Diabetes and Digestive and Kidney Diseases (NIDDK).

human SCLC cell line H69 = assay: [3H]Thymidine incorporation assay in H69 cells; format: cell-based; conditions: for [3H]Thymidine incorporation: Table V, mean s.e.
Description: as §2

[6] = tested on: MIA PaCa-2 human pancreatic cancer cell line; conditions: ref Liebow et al., 1989; cited from earlier work
Description: (§3) Br. J. Cancer (1994). 70, 886 892 ? Macmillan Press Ltd..

[7] = tested on: LNCaP prostatic cancer cells; conditions: LNCaP cells in culture; ref Gattani et al., 1990; cited from earlier work
Description: as §3

[8] = tested on: EGF receptors in membranes of non-SCLC H157 tumours; assay: EGF receptor binding on H157 tumour membranes after in vivo treatment; set-up: species or system human
Description: as §1, with “USA).” for “USA). Receptor assays Preparation of membranes for receptor studies was described previously (Halmos et al., 1993). Iodinated EGF and IGF-I were purchased from Amersham (Arlington Heights, IL, USA). Radioiodination of other peptides and receptor bind- ing of EGF, IGF-I, somatostatin and bombesin/GRP were performed as previously described (Srkalovic et al., 1989; Szepeshazi et al., 1992). Complete displacement assays on tumour membranes were done only once because of the shortage of tumour material. The LIGAND PC computerised curve-fitting programme of Munson and Rodbard (1980) was used to determine the types of receptor binding, dissociation constant (Kd) values, and the maximal binding capacity (BDj) of receptors.”

[9] = tested on: Bombesin/GRP receptors in membranes of SCLC H69 tumours; assay: Bombesin/GRP receptor binding on H69 tumour membranes after in vivo treatment; set-up: species or system human; conditions: Table IV, Experiment I (SCLC-H69); tumour membranes after in vivo treatment; control 420; done once
Description: as §1

Substance: [dF]CY[dW]KVCW-NH2 (cysteine pairing not given here) [RC-160, Somatostatin analogue RC-160]
- EGF maximal binding capacity (Bmax) ([1]; Table IV, Experiment I (SCLC-H69), tumour membranes after in vivo treatment, control 278, ten-point displacement in triplicate tubes, done once): 174 fmol mg' protein
- EGF receptors on H69 tumours (in words) ([1]; after in vivo treatment): down-regulated
- IGF-I maximal binding capacity (Bmax) ([2]; Table IV, Experiment II (non-SCLC H157), tumour membranes after in vivo treatment, control 257, done once): 129 fmol mg' protein
- IGF-I binding sites on H157 tumours (in words) ([2]; after in vivo treatment): decreased
- IGF-I maximal binding capacity (Bmax) [3]: 176 fmol mg' protein
- Serum GH levels (in words) ([4]; both experiments, after chronic treatment, vs controls): significantly decreased serum growth hormone and gastrin levels
- Decrease in serum GH levels ([4]; mice treated with RC-160 as compared with control mice): about 48%
- Serum gastrin levels (in words) [5]: significantly decreased serum growth hormone and gastrin levels
- Ratio of apoptotic to mitotic indices (SCLC H69 tumours): 2.27 ± 0.5*
- Suppression of DNA synthesis (human SCLC cell line H69; "At 0.0 ILg ml-'" RC-160, 5 days of incubation, H69 cells): about 43%
- [3H]thymidine incorporation into DNA of H69 cells (in words) (human SCLC cell line H69; RC-160 0.001 to 10.0 µg/ml, 5 days, RC-3005 or RC-3009 5.0 and 25.0 µg/ml, 3 days): significantly inhibited
- [3H]Thymidine incorporation (human SCLC cell line H69; 0.001 µg/ml, 5 days, *P<0.05 vs control): 81.6 4.6* per cent of control
- [3H]Thymidine incorporation (human SCLC cell line H69; 0.01 µg/ml, 5 days, *P<0.05 vs control): 80.0 4.1* per cent of control
- [3H]Thymidine incorporation (human SCLC cell line H69; 0.1 µg/ml, 5 days, **P<0.01 vs control): 71.6 ± 3.4** per cent of control
- Effect on EGF-stimulated cell growth (in words) [6]: reversed the stimulatory effect of EGF
- Effect on EGF-stimulated phosphorylation of the tyrosine kinase domain of the EGF receptors (in words) [6]: reversed the stimulatory effect of EGF
- Effect on [3H]thymidine incorporation (in words) [7]: inhibitory effect
- EGF maximal binding capacity (Bmax) ([8]; Table IV, Experiment II (non-SCLC H157), tumour membranes after in vivo treatment, control 249, done once): 100 fmol mg' protein
- EGF binding capacity on H157 tumours (in words) ([8]; after in vivo treatment): decreased
- Bombesin/GRP maximal binding capacity (Bmax) [9]: 435 fmol mg-'protein
